System: adult subjects with moderate to severe AA
Assay: Phase III trial: Clinical Global Impression of Severity (CGI-S)
Type: in vivo, human
Protocol: The CGI-S was assessed by the investigator and considered the severity of the subject's alopecia at the time of assessment. The investigator selected 1 of 7 numeric choices representing “Among the most extreme hair loss” to “Normal, no hair loss.” To reduce variability, 1 rater was to perform the CGI-S assessment for the subject. The definitions of the numeric choices is as follows: 1=normal, no hair loss; 2=borderline hair loss; 3=mild hair loss; 4=moderately hair loss; 5=marked hair loss; 6=severe hair loss; 7=among the most extreme hair loss.
A Phase III trial was conducted to assess the efficacy and safety of CTP-543 in adult subjects with moderate to severe AA. Approximately 440 adult male and female subjects 18 to 65 years of age, inclusive, with moderate to severe AA participated in the study. Subjects with definitive diagnosis of AA, and at least 50% hair loss, as defined by a SALT score ≥50, who met all of the inclusion criteria and none of the exclusion criteria participated in the study.
The Screening Period lasted up to 28 days prior to initiation of study drug. […] Randomization was stratified by scalp hair loss into 1 of the following 2 categories: 1) partial scalp hair loss (SALT ≥50 and <95), 2) complete or near complete scalp hair loss (SALT ≥95).
Additional secondary efficacy endpoints included the following: • Relative change in SALT scores from baseline at Weeks 4, 8, 12, 16, 20, and 24. • Percentage of responders (defined as “much improved” or “very much improved”) using the Clinical Global Impression of Improvement (CGI-I) at Weeks 12, 16, 20, and 24. • Percentage of responders (defined as “much improved” or “very much improved”) using the Patient Global Impression of Improvement (PGI-I) at Weeks 12, 16, 20, and 24. • Change from baseline in the Clinical Global Impression of Severity (CGI-S) at Weeks 12, 16, 20, and 24. • Change from baseline in the Patient Global Impression of Severity (PGI-S) at Weeks 12, 16, 20, and 24. • Change from baseline on the Brigham Eyebrow Tool for Alopecia (BETA) score at Weeks 12 and 24. • Change from baseline on the Brigham Eyelash Tool for Alopecia (BELA) score at Weeks 12 and 24. • Percentage of subjects achieving at least a 75% relative reduction in SALT score from baseline at Weeks 12 and 24. • Percentage of subjects achieving at least a 90% relative reduction in SALT score from baseline at Weeks 12 and 24. • Percentage of responders (defined as “satisfied” or “very satisfied”) on the SPRO scale at Weeks 12, 16, and 20. • Change from baseline in the SPRO scale at Weeks 12, 16, 20, and 24. • Percentage of subjects achieving a ≥2-point change from baseline in the SPRO scale at Weeks 12, 16, 20, and 24. • Change from baseline on the individual items of the Hair Quality Patient Reported Outcome (QPRO) scale at Weeks 12, 16, 20, and 24. • Change from baseline in the depression scale of the Hospital Anxiety and Depression Scale (HADS) at Week 24. • Change from baseline in the anxiety scale of the HADS at Week 24. • Percentage of subjects achieving an absolute SALT score of ≤20 at Week 4. • Percentage of subjects achieving an absolute SALT score of ≤10 at Week 24
A decrease in CGI-I score indicates improvement (impression is decreased severity). Similar to other endpoints, decreases favoring the active group over placebo were observed beginning at Week 12 and continuing through Week 24, and the magnitude of the differences increased at each subsequent time point. […] Detailed data for each time point are described below.

## [2H]C1([2H])C([C@@H](CC#N)n2cc(-c3ncnc4[nH]ccc34)cn2)C([2H])([2H])C([2H])([2H])C1([2H])[2H] [CTP-543, (R)-3-(4-(7H-pyrrolo[2,3-d]pyrimidin-4-yl)-1H-pyrazol-1-yl)-3-(cyclopentyl-2,2,3,3,4,4,5,5-d8) propanenitrile]
Week 12, 8 mg BID
  CGI-S, LS mean change from baseline: −1.3
Week 12, 12 mg BID
  CGI-S, LS mean change from baseline: −1.4
Week 16, 12 mg BID
  CGI-S, LS mean change from baseline: −1.8
Week 20, 8 mg BID
  CGI-S, LS mean change from baseline: −1.8
Week 20, 12 mg BID
  CGI-S, LS mean change from baseline: −2.1
Week 24, 8 mg BID
  CGI-S, LS mean change from baseline: −2.1
Week 24, 12 mg BID
  CGI-S, LS mean change from baseline: −2.4

— patent US20250114367A1, “METHOD OF TREATING HAIR LOSS DISORDERS” (Sun Pharmaceutical Industries, Inc., priority 2023, published 2025)
